Test results from patent publication US10047105B2, “Gyrase inhibitors” (Merck Sharp & Dohme Corp., priority 2009, dated 2018).
In brackets after ≈: the same amount, converted by molar mass.

Tests used:
S. pneumoniae ATCC 51916 = assay: MIC, S. pneumoniae; assay type: cell-based
S. aureus ATCC 13709 = assay: MIC, antibacterial potency, S. aureus; assay type: cell-based
[1] = S. pneumoniae (Spn52), in µg/mL

| MIC Spn52 (S. pneumoniae ATCC 51916; S. pneumoniae) [µg/mL] | MIC, SA (S. aureus ATCC 13709; S. aureus) [µg/mL] | MIC Spn52 (S. pneumoniae ATCC 51916; [1]) | MIC, SA (S. aureus ATCC 13709; S. aureus (SA), in µg/mL) | SMILES |
| --- | --- | --- | --- | --- |
| 2 (≈ 4.23 µM) | 1 (≈ 2.12 µM) | – | – | CCc1[nH]c2nc(Sc3cnc4nccnc4c3)nc(N3CCOCC3)c2c1Br [700,423] |
| ≤ 0.5 | ≤ 0.5 | – | – | CCc1[nH]c2nc(Sc3cnc4nccnc4c3)nc(N3CC(O)C3)c2c1Br [700,392] |
| 64 (≈ 164 µM) | > 64 | – | – | CCOc1nc(Sc2ccc(NC3CC3)nn2)nc2[nH]c(CC)c(Cl)c12 [700,324] |
| – | – | >64 | 8 | CCc1[nH]c2nc(Sc3cnc4nccnc4c3)nc(N3CC(CNC(=O)C4CNC4)C3)c2c1Cl [700,858] |
| 16 (≈ 42.6 µM) | 8 (≈ 21.3 µM) | – | – | CCc1[nH]c2nc(Sc3cncnc3)nc(N3CC[C@@H](N)C3)c2c1Cl [700,783] |
| 1 (≈ 2.34 µM) | ≤ 0.5 | – | – | CCc1[nH]c2nc(Sc3cnc4nccnc4c3)nc(N3CCOCC3)c2c1Cl [700,424] |
| 4 (≈ 6.81 µM) | 2 (≈ 3.41 µM) | – | – | CCc1[nH]c2nc(Sc3cnc4nccnc4c3)nc(N3CC(CNC(=O)COCCOCCOC)C3)c2c1Cl [700,523] |
| 32 (≈ 74.5 µM) | 4 (≈ 9.32 µM) | – | – | CCOc1nc(Sc2nc(C(=O)O)cs2)nc2[nH]c(CC)c(Br)c12 [700,286] |
| – | – | 64 | 64 | CCc1[nH]c2nc(Sc3cnc4cccnc4c3)nc(N3C[C@H](N)C[C@@H]3CO)c2c1Cl [700,870] |
| > 64 | > 64 | – | – | CCc1[nH]c2nc(Sc3cccnc3)nc(NCCNc3ccc(C(=O)O)cn3)c2c1C=O [700,287] |
| – | – | >64 | >64 | CCc1[nH]c2nc(Sc3ccc4nnc(C(=O)NCC5CCNCC5)nc4c3)nc(N3CC[C@@H](N)C3)c2c1Cl [700,845] |
| 1 (≈ 1.79 µM) | ≤ 0.5 | – | – | CCc1[nH]c2nc(Sc3cnc4nccnc4c3)nc(N3CC(NS(=O)(=O)CC(F)(F)F)C3)c2c1Cl [700,436] |
| 64 (≈ 135 µM) | > 64 | – | – | CCc1[nH]c2nc(Sc3nc(C(=O)OC)c(Cl)s3)nc(OCC3CCC3)c2c1Cl [700,328] |
| – | – | 64 | 64 | CCc1[nH]c2nc(Sc3cc(F)cc(F)c3C#N)nc(N3CC[C@@H](N)C3)c2c1Cl [700,848] |
| – | – | >64 | >64 | CCc1[nH]c2nc(Sc3cnc4nccnc4c3)nc(N3C[C@@H]4[C@H](C3)[C@H]4N(Cc3ccccc3)Cc3ccccc3)c2c1Cl [700,822] |
| > 64 | 8 (≈ 17 µM) | – | – | CCc1[nH]c2nc(Nc3cnc4c(cnn4C(C)C)c3)nc(N3CC(O)C3)c2c1Br [700,385] |

| MIC Spn52 (S. pneumoniae ATCC 51916; S. pneumoniae) [µg/mL] | MIC, SA (S. aureus ATCC 13709; S. aureus) [µg/mL] | MIC Spn52 (S. pneumoniae ATCC 51916; [1]) | MIC, SA (S. aureus ATCC 13709; S. aureus (SA), in µg/mL) | SMILES |
| --- | --- | --- | --- | --- |
| 8 (≈ 20.3 µM) | 2 (≈ 5.07 µM) | – | – | CCc1[nH]c2nc(Sc3cc(=O)[nH]c(=O)[nH]3)nc(N3CC(O)C3)c2c1Cl [700,359] |
| 32 (≈ 74.5 µM) | 32 (≈ 74.5 µM) | – | – | CCOc1nc(Sc2ncc(C(=O)O)s2)nc2[nH]c(CC)c(Br)c12 [700,293] |
| 8 (≈ 20.7 µM) | 2 (≈ 5.17 µM) | – | – | CCOc1nc(Sc2cnc3cccnc3n2)nc2[nH]c(CC)c(Cl)c12 [700,298] |
| 32 (≈ 72.6 µM) | 8 (≈ 18.1 µM) | – | – | CCOc1nc(Sc2nc(C(=O)OC)c(C(C)C)s2)nc2[nH]c(CC)c(Cl)c12 [700,304] |
| – | – | >64 | 64 | CCc1[nH]c2nc(Sc3ccc4c(N5CC[C@@H](N)C5)cc(C)nc4c3)nc(N3CC[C@@H](N)C3)c2c1Cl [700,843] |
| 8 (≈ 20.6 µM) | 2 (≈ 5.16 µM) | – | – | CCc1[nH]c2nc(Sc3cncnc3)nc(N3CC4C(N)C4C3)c2c1Cl (centres unmarked) [700,784] |
| 2 (≈ 4.55 µM) | ≤ 0.5 | – | – | CCc1[nH]c2nc(Sc3cc(=O)[nH]c(=O)[nH]3)nc(N3CC(O)C3)c2c1Br [700,360] |
| 64 (≈ 145 µM) | > 64 | – | – | CCc1[nH]c2nc(Sc3cccc(CC(=O)OC)c3)nc(Cl)c2c1Br [700,296] |
| 2 (≈ 4.22 µM) | ≤ 0.5 | – | – | CCc1[nH]c2nc(Sc3cnc4c(c3)ncn4CC)nc(N3CC(O)C3)c2c1Br [700,405] |
| > 64 | 8 (≈ 22.1 µM) | – | – | CCOc1nc(Nc2cccnc2)nc2[nH]c(CC)c(Br)c12 [700,331] |
| 2 (≈ 4.38 µM) | 4 (≈ 8.75 µM) | – | – | CCc1[nH]c2nc(Sc3cnc4cccnc4c3)nc(N3CC[C@H](O)[C@H]3CO)c2c1Cl [700,659] |
| 16 (≈ 33.9 µM) | 4 (≈ 8.49 µM) | – | – | CCc1[nH]c2nc(Sc3cnc4nccnc4c3)nc(N3CC(CN)C3)c2c1Br [700,467] |
| > 64 | > 64 | – | – | CCc1[nH]c2nc(Sc3nc4ncccc4c(=O)[nH]3)nc(N3CC(O)C3)c2c1Cl [700,353] |
| 32 (≈ 66.6 µM) | > 64 | – | – | CCc1[nH]c2nc(Sc3cccc(NC(=O)OC)c3)nc(NC[C@H](C)O)c2c1Br [700,295] |
| – | – | >64 | 32 | CCc1[nH]c2nc(Sc3ccc4cc(C(=O)O)c(C(=O)O)nc4c3)nc(N3CC[C@@H](N)C3)c2c1Cl [700,859] |
| – | – | 32 | 16 | CCc1[nH]c2nc(Sc3cncnc3)nc(N3CC(CN)C3)c2c1Cl [700,786] |

| SMILES | MIC Spn52 (S. pneumoniae ATCC 51916; S. pneumoniae) [µg/mL] | MIC, SA (S. aureus ATCC 13709; S. aureus) [µg/mL] | MIC Spn52 (S. pneumoniae ATCC 51916; [1]) | MIC, SA (S. aureus ATCC 13709; S. aureus (SA), in µg/mL) |
| --- | --- | --- | --- | --- |
| CCc1[nH]c2nc(Sc3cnc4nccnc4c3)nc(N3CCC(N4CCN(C)CC4)C3)c2c1Cl.O=C(O)C(F)(F)F.O=C(O)C(F)(F)F (centres unmarked) [700,700] | 8 | 4 | – | – |
| CCc1[nH]c2nc(Sc3nc(C(=O)NOC)cs3)nc(N3CCN(C(C)=O)CC3)c2c1Cl.O=C(O)C(F)(F)F [700,364] | > 64 | 32 | – | – |
| CCc1[nH]c2nc(Sc3cc(=O)[nH]c(=O)[nH]3)nc(N3CC4CNC4C3)c2c1Cl.O=C(O)C(F)(F)F (centres unmarked) [700,627] | 16 | 4 | – | – |
| CCc1[nH]c2nc(Sc3cccnc3)nc(NCc3ccccc3OC)c2c1Br.O=C(O)C(F)(F)F [700,271] | > 64 | > 64 | – | – |
| CCc1[nH]c2nc(Sc3nc(C(=O)O)cs3)nc(N3CC(Cc4c(Cl)ncnc4Cl)C3)c2c1Cl.O=C(O)C(F)(F)F [700,317] | > 64 | > 64 | – | – |
| CCc1[nH]c2nc(Oc3cncnc3)nc(Oc3cncnc3)c2c1Br.O=C(O)C(F)(F)F [700,552] | 2 | ≤ 0.5 | – | – |
| CCc1[nH]c2nc(Sc3nc(C(=O)O)cs3)nc(N3CCC(=O)C3)c2c1Cl.O=C(O)C(F)(F)F [700,357] | > 64 | > 64 | – | – |
| CCc1[nH]c2nc(Nc3cnc4c(c3)nnn4C(C)C)nc(N3CC(NC(=O)O)C3)c2c1Cl.O=C(O)C(F)(F)F [700,526] | > 64 | 8 | – | – |
| CCc1[nH]c2nc(Sc3cnc4nccnc4c3)nc(N3CC4C(C3)C4NC(=O)OC(C)(C)C)c2c1Cl.O=C(O)C(F)(F)F.O=C(O)C(F)(F)F (centres unmarked) [700,608] | 2 | 1 | – | – |
| CCc1[nH]c2nc(Oc3cccnc3)nc(Oc3cccnc3)c2c1C(F)(F)F.O=C(O)C(F)(F)F [700,654] | > 64 | > 64 | – | – |
| CCc1[nH]c2nc(Sc3nc(C(=O)NOC)cs3)nc(N3CCOCC3)c2c1Cl.O=C(O)C(F)(F)F [700,397] | > 64 | > 64 | – | – |
| CCOc1nc(Nc2cnc3ccccc3c2)nc2[nH]c(CC)c(Br)c12.O=C(O)C(F)(F)F [700,363] | > 64 | > 64 | – | – |
| CCc1[nH]c2nc(Sc3cnc4nccnc4c3)nc(N3CCC(n4c(=O)[nH]c5cc(Cl)ccc54)CC3)c2c1Cl.O=C(O)C(F)(F)F [700,792] | – | – | >64 | >64 |
| CCc1[nH]c2nc(Sc3cnc4nccnc4c3)nc(NCCNC)c2c1Cl.O=C(O)C(F)(F)F [700,512] | > 64 | > 64 | – | – |
